We go through twelve substances from ChEMBL document CHEMBL4376881, “Toggling Preassembly with Single-Site Mutation Switches the Cytotoxic Mechanism of Cationic Amphipathic Peptides” (J Med Chem, 2020).

Active and inactive are the calls of the source. The calls are words filed in the database; no cut-off is given here.

The test system of series [1] is HeLa. The experiment in a line: Cytotoxicity against human HeLa cells assessed as reduction in cell viability incubated for 1 hr by MTT assay. The series is classed as functional, cell-based. Background: Formazan colour is commonly taken as a measure of viable cells.
Series [2] can be described thus: Self aggregation up to 128 uM in PBS buffer by ANS fluorescent probe based aggregate incorporation assay. The series is classed as physicochemical.
The subject of series [3] is HeLa. The experiment in a line: Induction of membrane lysis in human HeLa cells assessed as loss of membrane integrity at cytotoxic IC50 level incubated for 15 mins by Propidium iodide staining based confocal laser scanning microscopy relative to control. The format is functional.
Series [4] can be described thus: Selectivity index, ratio of HC10 for induction of hemolysis in human erythrocytes assessed as hemoglobin release incubated for 2 hrs by UV absorbance based method to IC50 for cytotoxicity against human K562 cells assessed as reduction in cell viability incubated for 1 hr by MTT assay.
The subject of another series is MCF7. Description: Cytotoxicity against human MCF7 cells assessed as reduction in cell viability incubated for 1 hr by MTT assay. The series is classed as functional, cell-based. The settings on record: MCF7, 1 h.
Series [5] can be described thus: Selectivity index, ratio of HC10 for induction of hemolysis in human erythrocytes assessed as hemoglobin release incubated for 2 hrs by UV absorbance based method to IC50 for cytotoxicity against human A549 cells assessed as reduction in cell viability incubated for 1 hr by MTT assay.
In the next series the test system is A549. The experiment in a line: Cytotoxicity against human A549 cells assessed as reduction in cell viability incubated for 1 hr by MTT assay. The format is functional, cell-based. The note with it: A549, 1 h.
The nature of series [6]: Selectivity index, ratio of HC10 for induction of hemolysis in human erythrocytes assessed as hemoglobin release incubated for 2 hrs by UV absorbance based method to IC50 for cytotoxicity against human HL60 cells assessed as reduction in cell viability incubated for 1 hr by MTT assay.
Another series relates to HL-60. Description: Cytotoxicity against human HL60 cells assessed as reduction in cell viability incubated for 1 hr by MTT assay. The format is functional, cell-based. The note with it: HL-60, 1 h.
In the next series the test system is K562. Description: Cytotoxicity against human K562 cells assessed as reduction in cell viability incubated for 1 hr by MTT assay. The format is functional, cell-based. The settings on record: K562, 1 h.
Series [7] is described as follows: Induction of hemolysis in human erythrocytes assessed as hemoglobin release incubated for 2 hrs by UV absorbance based method. The format is cell-based. The note with it: erythrocyte.
Series [8] can be described thus: Selectivity index, ratio of HC10 for induction of hemolysis in human erythrocytes assessed as hemoglobin release incubated for 2 hrs by UV absorbance based method to IC50 for cytotoxicity against human MCF7 cells assessed as reduction in cell viability incubated for 1 hr by MTT assay.
The nature of series [9]: Selectivity index, ratio of HC10 for induction of hemolysis in human erythrocytes assessed as hemoglobin release incubated for 2 hrs by UV absorbance based method to IC50 for cytotoxicity against human HeLa cells assessed as reduction in cell viability incubated for 1 hr by MTT assay.
The nature of series [10]: Drug localization in mitochondria of human HeLa cells using FITC-labeled compound at cytotoxic IC50 level incubated for 30 mins by Mito-tracker red dye based confocal laser scanning microscopy. The note with it: 0.5 h.
Series [11] relates to HeLa. The experiment in a line: Induction of oxidative stress in human HeLa cells assessed as increase in reactive oxygen species at cytotoxic IC50 level incubated for 15 mins by CellROX deep red reagent based flow cytometry. The format is functional, cell-based. (A flow cytometer gives signals particle by particle.)
The nature of series [12]: Drug localization in lysosome of human HeLa cells using FITC-labeled compound at cytotoxic IC50 level incubated for 30 mins by Lysotracker red dye based confocal laser scanning microscopy. The format is subcellular. The settings on record: 0.5 h.
Series [13] concerns HeLa. Description: Cytotoxicity against human HeLa cells assessed as reduction in cell viability at 4 degC at 1 to 16 uM incubated for 1 hr by MTT assay. The series is classed as functional, cell-based.
The nature of series [14]: Drug localization in nucleoli of human HeLa cells using FITC-labeled compound at cytotoxic IC50 level incubated for 30 mins by confocal laser scanning microscopy. The note with it: 0.5 h. The series is classed as subcellular.
Series [15] is described as follows: Self aggregation assessed as formation of nano fibers of varying lengths at 32 uM by atomic force microscopy. The series is classed as physicochemical.
Series [16] in a line: Drug localization in endoplasmic reticulum of human HeLa cells using FITC-labeled compound at cytotoxic IC50 level incubated for 30 mins by ER-tracker red dye based confocal laser scanning microscopy. The settings on record: 0.5 h. The series is classed as subcellular.
The subject of series [17] is HeLa. The experiment in a line: Induction of membrane lysis in human HeLa cells assessed as increase in number of enlarged outward budding vesicles at cytotoxic IC50 level incubated for 15 mins by annexin V-FITC and by propidium iodide staining. The format is functional, cell-based.
The subject of series [18] is HeLa. The experiment in a line: Suppression of mitochondrial membrane potential in human HeLa cells at cytotoxic IC50 level incubated for 15 mins by rhodamine 123 dye based flow cytometry. The format is functional, cell-based.
Series [19] relates to HeLa. Description: Induction of apoptosis in human HeLa cells assessed as increase in caspase 3/7 activity at cytotoxic IC50 level using Ac-DEVD- pNA substrate incubated for 15 to 60 mins. The series is classed as functional, cell-based.
Series [20] is described as follows: Self aggregation at >8 uM in PBS buffer by ANS fluorescent probe based aggregate incorporation assay. The series is classed as physicochemical.
The subject of series [21] is HeLa. Description: Cytotoxicity against human HeLa cells assessed as reduction in cell viability at cytotoxic IC50 in presence of 1.5 to 150 ng/mL sodium heparin incubated for 1 hr by MTT assay. The series is classed as functional, cell-based.
A short description of series [22]: Drug localization in cell membrane of human HeLa cells using FITC-labeled compound at cytotoxic IC50 level incubated for 30 mins by confocal laser scanning microscopy. The series is classed as cell membranes. The settings on record: 0.5 h.

H-KLLKLLKKLEKLLK-OH: in the series with HeLa [1], the IC50 is 11.2 µM. The Activity result in series [2] is given as “Not Active”. The result in the series on HeLa [3] was inactive.

For the substance H-KLLKLLKKLLKLEK-OH, in the series with HeLa [1], the half-maximal inhibitory concentration (IC50) stood at 21.8 µM. Also, the Activity entry in series [2] is “Not Active”. For the same substance, in the series on HeLa [3], the outcome was inactive.

Regarding H-KLLELLKKLLKLLK-OH, the IC50 in the series on HeLa [1] came to 5.3 µM. Besides, the outcome in series [2] was Active. For the same substance, in the series with HeLa [3], the result was Active.

Turning to H-KKLKLLKKLLKLLK-OH, the “Selectivity Index” value in [4] was 15; in series [5] it was 5.53; in series [6], 11.5; in series [8], 3.14; in series [9], 5.74. Further, the 50% inhibitory concentration (IC50) was 6.2 µM in the series with MCF7; 3.5 µM with A549; 3.4 µM with HeLa [1]; 1.7 µM in the series with HL-60; 1.3 µM in the series with K562. Also, the Activity result in series [2] is listed as “Not Active”. For the same substance, in the series on HeLa [3], the result was inactive. Moreover, in series [7], the HC10 is 19.5 µM.

In the case of H-KLEKLLKKLLKLLK-OH, the IC50 in the series on HeLa [1] is 6.1 µM. In series [2], the Activity entry was “Not Active”. Further, in the series on HeLa [3], the outcome was inactive.

Consider H-KLLKLLKKLLKELK-OH, for which, in the series with HeLa [1], the IC50 was 5.1 µM. The Activity entry in series [2] was “Not Active”. For the same substance, the result in the series with HeLa [3] was inactive.

Consider H-KELKLLKKLLKLLK-OH, for which the “Selectivity Index” value in [4] came to 25.7; in series [5], 4.58; in series [6], 18.7; in [8], 4.25; in series [9], 9.13. For the same substance, the Drug uptake entry in [10], in [12], in [14] and in [16] was “Active” throughout. The IC50 in the series with MCF7 was 14.5 µM; in the series with A549, 13.5 µM; in the series on HeLa [1], 6.8 µM; in the series on HL-60 it was 3.3 µM; with K562 it was 2.4 µM. In addition, the result with HeLa [11], in the series with HeLa [18] and in the series with HeLa [19] was Active. Moreover, the outcome in the series on HeLa [13], in the series on HeLa [3] and in the series with HeLa [17] was inactive. Besides, the Activity entry in series [2] and in series [15] was “Not Active” throughout. For the same substance, in series [7], the HC10 came out at 61.7 µM.

Consider H-KLLKLLKKELKLLK-OH, for which, in the series on HeLa [1], the concentration for half-maximal inhibition (IC50) is more than 64 µM. Further, in series [2], the Activity entry is reported as “Not Active”.

As for H-KLLKLEKKLLKLLK-OH, the IC50 with HeLa [1] is more than 64 µM. For the same substance, in series [2], the Activity entry was “Not Active”.

For the substance H-KLLKELKKLLKLLK-OH, in the series with HeLa [1], the IC50 is 8.6 µM. Besides, the Activity entry in series [2] was “Not Active”. In addition, the result in the series on HeLa [3] was inactive.

Consider H-KQLKLLKKLLKLLK-OH, for which the “Selectivity Index” value in series [4] worked out at 19.7; in series [5], 5.59; in [6] it was 17.8; in series [8], 3.95; in [9], 6.77. In addition, the 50% inhibitory concentration (IC50) worked out at 9 µM in the series on MCF7; 6.3 µM with A549; 5.2 µM in the series on HeLa [1]; 2 µM in the series on HL-60; 1.8 µM with K562. For the same substance, the Activity result in series [2] is given as “Not Active”. The outcome in the series on HeLa [3] was inactive. The HC10 in series [7] is 35.5 µM.

For H-KLLKLLKKLLKLLK-OH, the “Selectivity Index” value worked out at 0.37 in [4]; 0.14 in [5]; 0.21 in series [6]; 0.12 in series [8]; 0.11 in [9]. Further, the Activity result is recorded as “Dose-dependent effect” in [20], “Active” in [15] and 50% in the series with HeLa [3]. In addition, the 50% inhibitory concentration (IC50) in the series on MCF7 was 4.3 µM; with A549, 3.7 µM; in the series on HeLa [1], 4.6 µM; with HL-60, 2.5 µM; with K562 it was 1.4 µM. Besides, the outcome in the series with HeLa [21] and in the series with HeLa [17] was Active. Moreover, the Drug uptake result in series [22] is given as “Active”. Further, the HC10 in series [7] was determined as 0.52 µM.

Broadly, the IC50 is the midpoint of a concentration-inhibition curve.
